From patent US11325899B2, “Benzofurane and benzothiophene derivatives as PGE2 receptor modulators” (IDORSIA PHARMACEUTICALS LTD, priority 2017, dated 2022)

Legend:
Format in all cases: cell-based
EP2 receptor = target: T1, EP2 receptor (Homo sapiens, UniProt P43116); assay: hEP2 cAMP assay (SF295 glioblastoma cells, HTRF cAMP, PGE2 stimulation); conditions: antagonistic activity
T1 construct: SF295 glioblastoma cells express high endogenous EP2 and no EP4; host or cells: SF295 glioblastoma cells
Protocol: (§1) The antagonistic activities of the compounds of formula (I) on the EP2 and EP4 receptors are also determined in accordance with the following experimental method.
(§2) Human tumor cell lines expressing endogenously either EP4 or EP2 are used and cAMP accumulation in cells upon PGE2 stimulation is monitored. SF295 glioblastoma cells express high endogenous EP2 and no EP4, whereas BT549 breast cancer cells, express high endogenous EP4 levels and very low EP2 levels.
(§3) As a detection method for cAMP the HTRF (homogeneous time resolved fluorescence) Cisbio kit (HTRF cAMP dynamic 2 kit 20′000 tests Cisbio Cat. #62AM4PEC) was used, which is based on a competitive immunoassay using a Cryptate-labeled anti-cAMP antibody and d2-labeled cAMP. Native cAMP produced by cells or unlabeled cAMP (for the standard curve) compete with exogenously added d2-labeled cAMP (acceptor) for binding to monoclonal anti-cAMP-Eu3+ Cryptate (donor). A FRET signal (Fluorescence Resonance Energy Transfer) is obtained only if the labeled anti-cAMP antibody binds the d2 labelled cAMP, thus the specific signal (i.e. energy transfer) is inversely proportional to the concentration of cAMP in the standard or sample.
(§4) The SF295 cells (NCI/No. 0503170) are detached from culture dishes with a cell dissociation buffer (Invitrogen, 13151-014), and collected in growing medium (GM: RPM1640 (Invitrogen 21875)/10% FCS, 1% Penicilin/streptomycin). Cells are counted washed and resuspended in assay buffer (AB; HBSS, 20 mM HEPES, 0.2% BSA; 2 mM IBMX). 4′000 cells in 5 μl of AB are seeded per well of a small volume 384 well plate (black with flat bottom, Greiner 784076).
Stock solutions of test compounds are made at a concentration of 10 mM in DMSO, and serially diluted in DMSO to concentrations required for inhibition dose response curves (tested concentration range 30 μM-0.4 nM; 30 μM-0.015 nM or 1 μM-0.01 nM).
PGE2 (Cayman 14010, stock solution: 75 μM in DMSO) is used as agonist at 75 nM final concentration, corresponding to EC80.
(§5) Two point five microliters of diluted compounds are transferred into the assay plate. Plate is pre-incubated 45 minutes at room temperature. Subsequently, 2.5 microliters of PGE2 (final conc. 75 nM) are transferred into the assay plate. Plate is incubated 30 minutes at room temperature. Five μl of each donor (anti-cAMP cryptate) and acceptor (cAMP-d2) are added and the plate is incubated another hour at room temperature in the dark and then read using a BMG LABTECH PHERAstar reader (Excitation: 337 nm, Emission: 620 and 665 nm).
(§6) The obtained Delta F (fluorescence) values (665 nm/620 nM) are converted into % cAMP values using the measurements of the cAMP calibrator provided in the kit. For each compound concentration the percentage of cAMP compared to DMSO control value as average±STDEV (each concentration is measured in duplicate) is calculated.
(§7) IC50 values and curves are generated with XLfit software (IDBS) using Dose-Response One Site model 203. When compounds were measured multiple times, mean values are given.

EP4 receptor = target: T2, EP4 receptor (Homo sapiens, UniProt P35408); assay: hEP4 cAMP assay (BT549 breast cancer cells, HTRF cAMP, PGE2 stimulation); conditions: antagonistic activity, PGE2 6 nM (EC80)
T2 construct: BT549 breast cancer cells, express high endogenous EP4 levels and very low EP2 levels; host or cells: BT549 breast cancer cells
Protocol: as §1, §2, §3
as §4, with “BT549” for “SF295”, “0507282)” for “0503170)”, “RPMI1640” for “RPM1640”
Stock solutions of test compounds are made at a concentration of 10 mM in DMSO, and serially diluted in DMSO to concentrations required for inhibition dose response curves (tested concentration range 30 μM-0.4 nM; 30 μM-0.015 nM or 1 uM-0.01 nM).
PGE2 (Cayman 14010, stock solution: 6 μM in DMSO) is used as agonist at 6 nM final concentration, corresponding to EC80.
as §5, with “6” for “75”, “(Excitation:337” for “(Excitation: 337”, “Emission:620” for “Emission: 620”
as §6, with “F(fluorescence)” for “F (fluorescence)”
as §7

PTGER2 (EP2) = target: T3, PTGER2 (EP2) (Homo sapiens, UniProt P43116); assay: hEP2 b-arrestin assay (PathHunter HEK 293 PTGER2 b-arrestin cells); conditions: antagonistic activity, beta-arrestin assay; read-out: hEP2 b-arr IC50
T3 construct: host or cells: HEK 293 (PathHunter PTGER2 b-arrestin cell line)
Procedure, shortened: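 Antagonism measured as inhibition of PGE2-driven β-arrestin 2 recruitment (enzyme fragment complementation, luminescence) in engineered HEK293 EP2 cells. Agonist: 5 μM PGE2, ~EC80, 120 min at 37 °C after 15 min compound preincubation; test range 10 μM-2 nM or 1 μM-0.2 nM, duplicates, IC50 fitted.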

PTGER4 (EP4) = target: T4, PTGER4 (EP4) (Homo sapiens, UniProt P35408); assay: hEP4 b-arrestin assay (PathHunter HEK 293 PTGER4 b-arrestin cells); conditions: antagonistic activity, beta-arrestin assay; read-out: hEP4 b-arr IC50
T4 construct: host or cells: HEK 293 (PathHunter PTGER4 b-arrestin cell line)
Procedure, shortened: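 β-Arrestin recruitment to EP4 was read as enzyme-fragment-complementation chemiluminescence in stably transfected HEK 293 cells. After 15 min compound preincubation at 37 °C (ranges 10 μM–2 nM or 1 μM–0.2 nM), cells were stimulated 120 min with PGE2 at 20 nM, its EC80. IC50 values were fitted from duplicates, with repeat measurements averaged.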

T2 sequence (P35408 whole entry): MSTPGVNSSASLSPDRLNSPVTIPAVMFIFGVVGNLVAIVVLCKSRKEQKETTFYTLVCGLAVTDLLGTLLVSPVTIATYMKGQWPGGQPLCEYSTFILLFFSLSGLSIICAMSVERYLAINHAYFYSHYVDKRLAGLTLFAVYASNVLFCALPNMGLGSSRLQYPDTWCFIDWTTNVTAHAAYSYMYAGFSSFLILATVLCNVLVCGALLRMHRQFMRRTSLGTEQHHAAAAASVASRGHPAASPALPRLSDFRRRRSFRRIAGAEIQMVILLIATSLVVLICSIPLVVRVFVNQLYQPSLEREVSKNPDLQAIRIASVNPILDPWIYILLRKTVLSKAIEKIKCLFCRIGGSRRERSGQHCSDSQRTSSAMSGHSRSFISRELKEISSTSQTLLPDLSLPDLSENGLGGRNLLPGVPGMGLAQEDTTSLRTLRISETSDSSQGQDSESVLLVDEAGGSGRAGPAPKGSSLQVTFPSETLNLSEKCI
T4 sequence (P35408 whole entry): as above
T1 sequence (P43116 whole entry): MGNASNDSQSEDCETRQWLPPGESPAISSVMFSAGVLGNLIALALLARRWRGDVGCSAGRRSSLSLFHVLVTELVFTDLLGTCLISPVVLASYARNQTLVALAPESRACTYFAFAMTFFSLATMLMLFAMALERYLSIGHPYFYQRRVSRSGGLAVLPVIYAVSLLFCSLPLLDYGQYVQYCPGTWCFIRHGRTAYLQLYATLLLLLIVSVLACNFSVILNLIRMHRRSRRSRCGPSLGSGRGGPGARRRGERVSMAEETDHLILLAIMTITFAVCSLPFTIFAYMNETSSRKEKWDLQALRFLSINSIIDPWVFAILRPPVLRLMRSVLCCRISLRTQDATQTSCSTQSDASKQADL
T3 sequence (P43116 whole entry): as above

Row | IC50 (EP2 receptor) [µM] | IC50 (EP4 receptor) [µM] | IC50 (PTGER2 (EP2)) [µM] | IC50 (PTGER4 (EP4)) [µM] | Compound
1 | 0.107 | 0.264 | 0.031 | – | CCOc1cc(-c2cc(NCCc3c(C)oc4c(Cl)cccc34)ncn2)ccc1CC(=O)O [Example 108, (4-{6-[2-(7-Chloro-2-methyl-benzofuran-3-yl)-ethylamino]-pyrimidin-4-yl}-2-ethoxy-phenyl)-acetic acid]
2 | 0.092 | 0.302 | 0.045 | – | Cc1sc2c(C)cc(F)cc2c1CCNc1cc(-c2ccc(C(=O)O)c(CC(C)C)c2)ncn1 [Example 94, 4-{6-[2-(5-Fluoro-2,7-dimethyl-benzo[b]thiophen-3-yl)-ethylamino]-pyrimidin-4-yl}-2-isobutyl-benzoic acid]
3 | 0.011 | 0.005 | – | 0.003 | CCOc1cc(-c2cc(NCCc3c(C)sc4c(C)cc(F)cc34)ncn2)sc1-c1noc(=O)[nH]1 [Example 159, 3-(3-Ethoxy-5-{6-[2-(5-fluoro-2,7-dimethyl-benzo[b]thiophen-3-yl)-ethylamino]-pyrimidin-4-yl}-thiophen-2-yl)-[1,2,4]oxadiazol-5(4H)-one [tautomeric form: 3-(3-ethoxy-5-(6-((2-(5-fluoro-2,7-dimethylbenzo[b]thiophen-3-yl)ethyl)amino)pyrimidin-4-yl)thiophen-2-yl)-[1,2,4]oxadiazol-5-ol]]
4 | 0.115 | 0.31 | 0.026 | – | CCOc1cc(-c2cc(NCCc3c(C)oc4c(C)cc(F)cc34)ncn2)ccc1OCC(=O)O [Example 124, (2-Ethoxy-4-{6-[2-(5-fluoro-2,7-dimethyl-benzofuran-3-yl)-ethylamino]-pyrimidin-4-yl}-phenoxy)-acetic acid]
5 | 0.284 | 0.765 | – | 0.209 | CCOc1cc(-c2cc(NCCc3c(C)sc4c(Cl)cc(F)cc34)ncn2)ccc1CC(=O)O [Example 113, (4-{6-[2-(7-Chloro-5-fluoro-2-methyl-benzo[b]thiophen-3-yl)-ethylamino]-pyrimidin-4-yl}-2-ethoxy-phenyl)-acetic acid]
6 | 0.02 | 0.306 | 0.013 | – | Cc1sc2c(C)cc(F)cc2c1CCNc1cc(-c2cc3ccc(C(=O)O)cc3[nH]2)ncn1 [Example 80, 2-{6-[2-(5-Fluoro-2,7-dimethyl-benzo[b]thiophen-3-yl)-ethylamino]-pyrimidin-4-yl}-1H-indole-6-carboxylic acid]
7 | 0.076 | 0.271 | 0.013 | – | CCOc1cc(-c2cc(NCCc3c(C)sc4c(C)cc(F)cc34)ncn2)ccc1NC(=O)C(=O)O [Example 145, N-(2-Ethoxy-4-{6-[2-(5-fluoro-2,7-dimethyl-benzo[b]thiophen-3-yl)-ethylamino]-pyrimidin-4-yl}-phenyl)-oxalamic acid]
8 | 0.035 | 0.362 | 0.036 | – | CCCc1cc(-c2cc(NCCc3c(C)sc4c(C)cc(F)cc34)ncn2)cc(F)c1C(=O)O [Example 93, 2-Fluoro-4-{6-[2-(5-fluoro-2,7-dimethyl-benzo[b]thiophen-3-yl)-ethylamino]-pyrimidin-4-yl}-6-propyl-benzoic acid]
9 | 0.647 | 0.855 | – | 0.484 | CCOc1cc(-c2cc(NCCc3c(C)sc4c(C)cc(F)cc34)ncn2)sc1CC(=O)OC [Example 95, (3-Ethoxy-5-{6-[2-(5-fluoro-2,7-dimethyl-benzo[b]thiophen-3-yl)-ethylamino]-pyrimidin-4-yl}-thiophen-2-yl)-acetic acid methyl ester]
10 | 0.392 | 0.323 | – | 0.202 | Cc1sc2c(C)cc(F)cc2c1CCNc1cc(-c2ccc(-c3cc(O)no3)cc2)ncn1 [Example 81, 5-(4-{6-[2-(5-Fluoro-2,7-dimethyl-benzo[b]thiophen-3-yl)-ethylamino]-pyrimidin-4-yl}-phenyl)-isoxazol-3-ol [tautomeric form: 5-(4-(6-((2-(5-fluoro-2,7-dimethylbenzo[b]thiophen-3-yl)ethyl)amino)pyrimidin-4-yl)phenyl)isoxazol-3(2H)-one]]
11 | 0.396 | 0.247 | – | 0.159 | CCOc1cc(-c2cc(NCCc3c(C)oc4c(OC)cc(Cl)cc34)ncn2)ccc1CC(=O)O [Example 106, (4-{6-[2-(5-Chloro-7-methoxy-2-methyl-benzofuran-3-yl)-ethylamino]-pyrimidin-4-yl}-2-ethoxy-phenyl)-acetic acid]
